Legend:
U2OS = assay: Eurofins OncoPanel (CellTiter-Glo); assay type: cell-based; details: Homo sapiens, 72 h, 3 days
RPMI-8226 = assay: cells; assay type: cell-based; details: Homo sapiens, NCI-60, 48 h
H9 = assay: Eurofins OncoPanel (CellTiter-Glo); assay type: cell-based; details: Homo sapiens, 72 h, 3 days
T-47D = assay: cells; assay type: cell-based; details: Homo sapiens, T47D, NCI-60, 48 h
CAKI-1 = assay: cells; assay type: cell-based; details: Homo sapiens, NCI-60, 48 h
OVCAR-3 = assay: cells; details: Homo sapiens, OVCAR-3, 48 h
TK-10 = assay: cells; details: Homo sapiens, TK-10, 48 h
COR-L105 = assay: Eurofins OncoPanel (CellTiter-Glo); assay type: cell-based; details: Homo sapiens, 72 h, 3 days
U251 = assay: cells; details: Homo sapiens, U-251, 48 h
K-562 = assay: cells; assay type: cell-based; details: Homo sapiens, K562, NCI-60, 48 h
SW1353 = assay: Eurofins OncoPanel (CellTiter-Glo); assay type: cell-based; details: Homo sapiens, 72 h, 3 days
NCI-H226 = assay: cells; details: Homo sapiens, NCI-H226, 48 h
IGROV1 = assay: cells; assay type: cell-based; details: Homo sapiens, IGROV-1, NCI-60, 48 h
SU-DHL-10 = assay: Eurofins OncoPanel (CellTiter-Glo); assay type: cell-based; details: Homo sapiens, SU-DHL10, 72 h, 3 days
M14 = assay: cells; assay type: cell-based; details: Homo sapiens, NCI-60, 48 h
KM12 = assay: cells; details: Homo sapiens, KM12, 48 h
SNB-75 = assay: cells; details: Homo sapiens, SNB-75, 48 h
Hs 294T = assay: Eurofins OncoPanel (CellTiter-Glo); assay type: cell-based; details: Homo sapiens, 72 h, 3 days
[1] = system: A549 human lung cancer xenograft; details: mouse, in vivo
OVCAR-8 = assay: cells; details: Homo sapiens, OVCAR-8, 48 h
HOP-62 = assay: cells; assay type: cell-based; details: Homo sapiens, NCI-60, 48 h
Hennes 20 cells = assay: Cell growth recovery assay; assay type: cell-based, Chinese hamster; details: PAV-617 0.3 µM 24 h, PAV-951 0.4 µM 6 h, followed to day 14
Description: To confirm that the inhibition observed in low-density Hennes 20 cells resulted from temporary arrest of proliferation and not cell death, compound was removed after a period of treatment and cell growth was measured over the subsequent two weeks for recovery potential. Once compound was removed, following a period of recovery, cell proliferation was restored over time for both chemotypes (see figure 1f,g). By day 11, cell density in compound-treated cells had caught up to that in the DMSO-treated cells (see figure 1f,g).
A 96-well plate was seeded with either Hennes 20 or LNCaP C-33 cells at 500 cells per well in 90 µl of minimum essential media and incubated at 37°C for 24 h. 0.5% DMSO was diluted in media and added to six control wells for each plate. PAV-617 was diluted in media and added to three wells at a concentration of 0.3 µM. PAV-951 was diluted in media and added to concentration of 0.4 µM. After 24 h of PAV-617 treatment or 6 h of PAV-951 treatment, the medium containing compound was removed and replaced with fresh media. After 72 h (day 5), plates were assayed with AlamarBlue and fluorescence was read at 530/590. The medium containing AlamarBlue was removed and replaced with fresh media. After another 72 h (day 8) plates were assayed with AlamarBlue and fluorescence again, then medium containing AlamarBlue was removed and replaced with fresh media. […]

EKVX = assay: cells; details: Homo sapiens, 48 h
A549 = assay: In-house cancer cell viability screen (AlamarBlue); assay type: cell-based, human; details: for IC50: Homo sapiens, AlamarBlue
RXF 393 = assay: cells; details: Homo sapiens, RXF 393, 48 h
MCF7 = assay: cells; details: Homo sapiens, MCF7, 48 h
NCI-H23 = assay: cells; details: Homo sapiens, NCI-H23, 48 h
BFTC-905 = assay: Eurofins OncoPanel (CellTiter-Glo); assay type: cell-based; details: Homo sapiens, 72 h, 3 days
SF-295 = assay: cells; details: Homo sapiens, SF-295, 48 h
786-0 = assay: cells; assay type: cell-based; details: Homo sapiens, NCI-60, 48 h
HCT-15 = assay: cells; details: Homo sapiens, HCT-15, 48 h
NL4-3 Rluc HIV = assay: microbe, parasite or virus in culture; assay type: cell-based; details: Human immunodeficiency virus 1, NL43, MT2, 96 h, read-out: EC50 against HIV
SK-OV-3 = assay: cells; details: Homo sapiens, SK-OV-3, 48 h
LNCaP C-33 cells = assay: Cell growth recovery assay; assay type: cell-based, human; details: PAV-617 0.3 µM 24 h, PAV-951 0.4 µM 6 h, followed

CC(C)CCNc1ncnc2cc(N3CCN(c4ccc5c(NCCC(C)C)ncnc5c4)CC3)ccc12 [PAV-951]
IC50 (U2OS): 368 nM
GI50 (RPMI-8226): 213 nM
IC50 (H9): 165 nM
GI50 (T-47D): 952 nM
GI50 (CAKI-1): 311 nM
GI50 (OVCAR-3): 1050 nM
CC50 (OVCAR-3; read-out: LC50): 4790 nM
GI50 (TK-10): 2160 nM
CC50 (TK-10; read-out: LC50): 6140 nM
IC50 (COR-L105): 962 nM
GI50 (U251): 213 nM
CC50 (U251; read-out: LC50): 910 nM
GI50 (K-562): 131 nM
IC50 (SW1353): 2210 nM
GI50 (NCI-H226): 1760 nM
CC50 (NCI-H226; read-out: LC50): 6810 nM
GI50 (IGROV1): 287 nM
IC50 (SU-DHL-10): 231 nM
GI50 (M14): 533 nM
GI50 (KM12): 227 nM
CC50 (KM12; read-out: LC50): 3850 nM
GI50 (SNB-75): 304 nM
CC50 (SNB-75; read-out: LC50): 4140 nM
IC50 (Hs 294T): 1100 nM
adverse effects at the doses of the xenograft studies [1]: without any serious adverse effects
GI50 (OVCAR-8): 521 nM
CC50 (OVCAR-8; read-out: LC50): 5180 nM
GI50 (HOP-62): 358 nM
recovery of cell growth after removal of compound (Hennes 20 cells): recovered over time
GI50 (EKVX): 1750 nM
CC50 (EKVX; read-out: LC50): 6120 nM
change of potency when compound is added at the time of plating rather than 24 h later (A549; A549): increased significantly
IC50 (A549; A549 (treatment 0 h after plating)): 2160 nM
IC50 (A549; A549 (treatment 24 h after plating), 72 h): 10900 nM
GI50 (RXF 393): 448 nM
GI50 (MCF7): 177 nM
CC50 (MCF7; read-out: LC50): 924 nM
GI50 (NCI-H23): 1470 nM
CC50 (NCI-H23; read-out: LC50): 5620 nM
IC50 (BFTC-905): 701 nM
GI50 (SF-295): 1640 nM
CC50 (SF-295; read-out: LC50): 5590 nM
GI50 (786-0): 339 nM
GI50 (HCT-15): 173 nM
CC50 (HCT-15; read-out: LC50): 815 nM
EC50 (NL4-3 Rluc HIV): 660 nM
GI50 (SK-OV-3): 1550 nM
CC50 (SK-OV-3; read-out: LC50): 6340 nM
recovery of cell growth after removal of compound (LNCaP C-33 cells): did not recover
